Measurements published in patent US11390631B1, “Benzodiazepine derivatives as RSV inhibitors” (priority 2015, dated 2022).
Like-named read-outs stand apart in the source and are kept apart here.

System: Human RSV-A (“Long” strain)
Assay: RSV-A assay: inhibition of cytopathic effect in Hep-2 cells, ATPlite readout
Assay type: cell-based, Human respiratory syncytial virus (HRSV)
Settings: read-out: Human RSV-A (“Long” strain) EC50
From the text: Hep-2 cells, (originally derived from tumors grown in irradiated-cortisonised weanling rats that had been injected with epidermoid carcinoma tissue from a person's larynx, but later found to be indistinguishable from HeLa cells by PCR DNA analysis), were used for the culturing of genotype A, “Long” strain RSV. Flasks were inoculated with RSV and viral stocks were collected once cytopathic effect (CPE) was greater than 90%. Viral stocks in 25% sucrose media were snap frozen using liquid nitrogen to increase viral stability. Viral stock titers were quantified by tissue culture infectious dose 50% (TCID50) using 8,000 cells per well and 3-fold viral dilutions across a 96-well plate, cultured for 4 days. Viral stock titers were also quantified by a plaque forming unit assay, as described elsewhere.
Following extensive parameter testing, the final assay is run as follows: Hep-2 cells are seeded into the inner 60 wells of a 96-well plate at 8,000 cells per well in a volume of 50 μL using Growth Media (DMEM without phenol red, 1% L-Glut, 1% Penn/Strep, 1% nonessential amino acids, 10% heat-inactivated FBS). 2-fold serial dilutions of control and test compounds are added to the wells in duplicate in a total volume of 25 μL. Viral stock is then added to the wells at a multiplicity of infection (MOI) of 0.1 in a volume of 25 μL, bringing the total volume of each well to 100 μL. The MOI is calculated using the PFU/mL, or TCID50 if unavailable. Each 96-well plate has a control column of 6 wells with cells and virus but no compound (negative control, max CPE), a column with cells but no compound or virus (positive control, minimum CPE), and a column with no cells or virus or compound (background plate/reagent control). The control wells with cells but no virus are given an additional 25 uL of growth media containing an equal quantity of sucrose as those wells receiving the viral stock in order to keep consistent in media and volume conditions. The outer wells of the plate are filled with 125 μL of moat media (DMEM, 1% Penn/Strep) to act as a thermal and evaporative moat around the test wells. Following a 5-day incubation period, the plates are read using ATPlite (50 uL added per well), which quantifies the amount of ATP (a measure of cell health) present in each well. Assay plates are read using the Envision luminometer. In parallel, cytotoxicity is examined on an additional 96-well plate treated in an identical manner, but substituting the 25 μL of viral stock for 25 μL of growth media. […] EC50 ranges are as follows: A<0.4 μM; B 0.4-0.8 μM; C>0.8 μM and CC50 ranges are as follows: A>50 μM; B 10-50 μM; C<10 μM.

[1] = human respiratory syncytial virus, HEp-2, 120 h
[2] = Hep-2 cells, MOI 0.1, 5-day incubation, ATPlite

Q: For N#CC1CN(c2ncccc2-c2nnc(NC3N=C(c4ccccc4)c4ccccc4NC3=O)o2)C1 (centres unmarked) [Example 274], which EC50 [1] is on record?
A: > 800 nM

Q: How did the EC50 [1] turn out when O=C1Nc2ccccc2C(c2ccccc2)=N[C@@H]1Nc1nnc(-c2occc2N2CCOCC2)o1 [Example 348] was run?
A: < 400 nM

Q: Which EC50 [1] does the source give for O=C1Nc2ccccc2C(c2ccccc2)=NC1Nc1nnc(-c2cccnc2N2CCC(F)CC2)o1 (centres unmarked) [Example 256] here?
A: > 800 nM

Q: For O=C1Nc2ccccc2C(c2ccccc2)=NC1Nc1nnc(-c2cccc(N3CCOCC3)c2)o1 (centres unmarked) [Example 111], which EC50 [1] is on record?
A: > 800 nM

Q: Which EC50 [1] does the source give for COCc1ccc2nccc(-c3nnc(N[C@H]4N=C(c5ccccc5)c5ccccc5NC4=O)o3)c2c1 [Example 409] here?
A: > 800 nM

Q: For O=C1Nc2ccccc2C(c2ccc(F)cc2)=NC1Nc1nnc(-c2ccc(F)cc2)o1 (centres unmarked) [Example 382], which EC50 [1] is on record?
A: > 800 nM

Q: O=C1Nc2ccccc2C(c2ccccc2)=N[C@@H]1Nc1nnc(-c2ncc(C3=CCCCC3)cc2N2CCOCC2)o1 [Example 312] was tested. Which EC50 [1] did it give?
A: 400 to 800 nM

Q: For O=C1Nc2ccccc2C(c2ccccc2)=NC1Nc1ncc(-c2ccc(F)cc2)o1 (centres unmarked) [Example 369], which EC50 [1] is on record?
A: > 800 nM

Q: With COCCNc1cc(C(F)(F)F)cnc1-c1nnc(N[C@H]2N=C(c3ccccc3)c3ccccc3NC2=O)o1 [Example 305] as the compound, how does the EC50 [1] read?
A: < 400 nM

Q: For O=C1Nc2ccccc2C(c2ccccc2)=N[C@@H]1Nc1nnc(-c2cn(-c3cccnc3)nc2N2CCOCC2)o1 [Example 425], which EC50 [1] is on record?
A: < 400 nM

Q: O=C1Nc2ccccc2C(c2ccccc2)=NC1Nc1nnc(-c2ccc(N3CCCC3)cc2)o1 (centres unmarked) [Example 184] was tested. Which EC50 [1] did it give?
A: 400 to 800 nM

Q: With O=C1Nc2ccccc2C(c2ccccc2)=NC1Nc1nnc(-c2cccnc2N2C[C@H]3C[C@@H]2CO3)o1 (some centres unmarked) [Example 264] as the compound, how does the EC50 [1] read?
A: > 800 nM

Q: How did the EC50 [1] turn out when O=C1Nc2ccccc2C(c2ccccc2)=N[C@@H]1Nc1nnc(-c2cnc(N3CCOCC3)cn2)o1 [Example 161] was run?
A: > 800 nM

Q: Which EC50 [1] does the source give for Cn1ncc(N2CCOCC2)c1-c1nnc(N[C@H]2N=C(c3ccccc3)c3ccccc3NC2=O)o1 [Example 178] here?
A: 400 to 800 nM

Q: O=C1Nc2ccccc2C(c2ccccc2)=N[C@@H]1Nc1nnc(-c2nc(C(F)(F)C(F)(F)F)sc2N2CCOCC2)o1 [Example 454] was tested. Which EC50 [1] did it give?
A: < 400 nM

Q: Which EC50 [1] does the source give for O=C1Nc2ccccc2C(c2ccccc2)=NC1Nc1nnc(CCC(F)(F)F)o1 (centres unmarked) [Example 192] here?
A: > 800 nM

Q: With N#Cc1ccc(-c2nnc(NC3N=C(c4ccccc4)c4ccccc4NC3=O)o2)nc1 (centres unmarked) [Example 24] as the compound, how does the EC50 [1] read?
A: 400 to 800 nM

Q: CS(=O)(=O)c1ccc(-c2nnc(NC3N=C(c4ccccc4)c4ccccc4NC3=O)o2)nc1 (centres unmarked) [Example 107] was tested. Which EC50 [1] did it give?
A: > 800 nM

Q: O=C1Nc2ccccc2C(c2ccccc2)=N[C@@H]1Nc1nnc(-c2cn(-c3ccccn3)nc2N2CCOCC2)o1 [Example 431] was tested. Which EC50 [1] did it give?
A: < 400 nM

Q: For COC(C)(C)CNc1cc(C(F)(F)F)cnc1-c1nnc(N[C@H]2N=C(c3ccccc3)c3ccccc3NC2=O)o1 [Example 416], which EC50 [1] is on record?
A: > 800 nM

Q: How did the EC50 [1] turn out when O=C1Nc2ccccc2C(c2ccccc2)=NC1Nc1nnc(-c2ccc(NC3CCCCC3)cc2)o1 (centres unmarked) [Example 116] was run?
A: > 800 nM

Q: O=C1Nc2ccccc2C(c2ccccc2)=NC1Nc1nnc(-c2ccccc2C2=CCOCC2)o1 (centres unmarked) [Example 353, 3-((5-(2-(3,6-dihydro-2H-pyran-4-yl)phenyl)-1,3,4-oxadiazol-2-yl)amino)-5-phenyl-1,3-dihydro-2H-benzo[e][1,4]diazepin-2-one] was tested. Which EC50 [1] did it give?
A: > 800 nM

Q: With CC(C)(c1nc(-c2nnc(N[C@H]3N=C(c4ccccc4)c4ccccc4NC3=O)o2)c(N2CCOCC2)s1)N1CCOCC1 [Example 459] as the compound, how does the EC50 [1] read?
A: < 400 nM

Q: With O=C1Nc2ccccc2C(c2ccccc2)=NC1Nc1nnc(-c2ccccc2NCc2ccccn2)o1 (centres unmarked) [Example 235] as the compound, how does the EC50 [1] read?
A: > 800 nM

Q: With O=C1Nc2ccccc2C(c2ccccc2)=NC1Nc1nnc(-c2ccc(-n3ccc(C(F)(F)F)n3)cc2)o1 (centres unmarked) [Example 202] as the compound, how does the EC50 [1] read?
A: > 800 nM

Q: For O=C1Nc2ccccc2C(c2ccccc2)=NC1Nc1nnc(-c2ccc(N3CCOCC3)cc2Cl)o1 (centres unmarked) [Example 122], which EC50 [1] is on record?
A: > 800 nM

Q: For C[C@@H]1CN(c2ccc(-c3nnc(N[C@H]4N=C(c5ccccc5)c5ccccc5NC4=O)o3)c(Cl)c2)C[C@H](C)O1 [Example 243], which EC50 [1] is on record?
A: > 800 nM

Q: Cc1nc(-c2nnc(NC3N=C(c4ccccc4)c4ccccc4NC3=O)o2)ccc1C#N (centres unmarked) [Example 200] was tested. Which EC50 [1] did it give?
A: 400 to 800 nM

Q: How did the EC50 [1] turn out when COCCn1cc(-c2nnc(N[C@H]3N=C(c4ccccc4)c4ccccc4NC3=O)o2)c(N2CCOCC2)n1 [Example 402] was run?
A: < 400 nM

Q: O=C1Nc2ccccc2C(c2ccccc2)=NC1Nc1nnc([C@H]2CCCO2)o1 (some centres unmarked) [Example 198] was tested. Which EC50 [1] did it give?
A: > 800 nM

Q: For O=C1Nc2ccccc2C(c2ccccc2)=N[C@@H]1Nc1nnc(-c2oc3ncccc3c2N2CCOCC2)o1 [Example 404], which EC50 [1] is on record?
A: < 400 nM

Q: How did the EC50 [2] turn out when COC[C@H]1C[C@@H]1c1cc(C(F)(F)F)cnc1-c1nnc(N[C@@H]2N=C(c3ccccc3)c3ccccc3NC2=O)o1 [Example 483] was run?
A: > 800 nM

Q: COCc1nnc(NC2N=C(c3ccccc3)c3ccccc3NC2=O)o1 (centres unmarked) [Example 191] was tested. Which EC50 [1] did it give?
A: > 800 nM

Q: How did the EC50 [1] turn out when O=C1Nc2ccccc2C(c2ccccc2)=N[C@@H]1Nc1nnc(-c2nc3ccccn3c2N2CCOCC2)o1 [Example 163] was run?
A: > 800 nM

Q: Which EC50 [1] does the source give for O=C1Nc2ccccc2C(c2ccccc2)=NC1Nc1nnc(-c2ccc(-n3cncn3)c(F)c2)o1 (centres unmarked) [Example 216] here?
A: 400 to 800 nM

Q: Which EC50 [1] does the source give for COCCN1CCCn2ncc(-c3nnc(N[C@H]4N=C(c5ccccc5)c5ccccc5NC4=O)o3)c21 [Example 438] here?
A: 400 to 800 nM

Q: With O=C1Nc2ccccc2C(c2ccccc2)=N[C@@H]1Nc1nnc(-c2ncc(C(F)(F)F)cc2N2CCOC3CC32)o1 (mixture of isomers) [Example 466] as the compound, how does the EC50 [1] read?
A: < 400 nM

Q: O=C1Nc2ccccc2C(c2ccccc2)=N[C@@H]1Nc1nnc(-c2nc(C3CCCCC3)sc2N2CCOCC2)o1 [Example 405] was tested. Which EC50 [1] did it give?
A: < 400 nM

Q: How did the EC50 [1] turn out when Cc1nc(-c2nnc(N[C@H]3N=C(c4ccccc4)c4ccccc4NC3=O)o2)c(C2=CCOCC2)s1 [Example 345, (S)-3-((5-(5-(3,6-dihydro-2H-pyran-4-yl)-2-methylthiazol-4-yl)-1,3,4-oxadiazol-2-yl)amino)-5-phenyl-1,3-dihydro-2H-benzo[e][1,4]diazepin-2-one] was run?
A: < 400 nM

Q: How did the EC50 [1] turn out when CN(c1nnc(-c2ccc(F)cc2)o1)C1N=C(c2ccccc2)c2ccccc2NC1=O (centres unmarked) [Example 209] was run?
A: > 800 nM

Q: For COC[C@@H]1CCCN1c1sc(C(F)(F)F)nc1-c1nnc(N[C@H]2N=C(c3ccccc3)c3ccccc3NC2=O)o1 [Example 457], which EC50 [1] is on record?
A: > 800 nM

Q: Which EC50 [1] does the source give for Cc1cc(-c2nnc(N[C@H]3N=C(c4ccccc4)c4ccccc4NC3=O)o2)c(N2CCOCC2)s1 [Example 330] here?
A: < 400 nM

Q: Which EC50 [1] does the source give for COCCc1cccn2ncc(-c3nnc(N[C@H]4N=C(c5ccccc5)c5ccccc5NC4=O)o3)c12 [Example 411] here?
A: > 800 nM

Q: For O=C1Nc2ccccc2C(c2ccccc2)=N[C@@H]1Nc1nnc(-c2nc(C(F)(F)F)sc2N2CCO[C@@H]3C[C@@H]32)o1 (single isomer, unassigned) [Example 486], which EC50 [2] is on record?
A: > 800 nM

Q: O=C1Nc2ccccc2C(c2ccccc2)=NC1Nc1ncc(-c2ccccc2)s1 (centres unmarked) [Example 85] was tested. Which EC50 [1] did it give?
A: > 800 nM

Q: How did the EC50 [1] turn out when O=C1Nc2ccccc2C(c2ccccc2)=NC1Nc1nnc(-c2ccc(N3CCOCC3)c(F)c2)o1 (centres unmarked) [Example 112] was run?
A: > 800 nM

Q: Which EC50 [1] does the source give for O=C1Nc2ccccc2C(c2ccccc2)=NC1Nc1nnc(-c2ncccc2N2CCOCC2)o1 (centres unmarked) [Example 132] here?
A: < 400 nM

Q: With O=C1Nc2ccccc2C(c2ccccc2)=NC1Nc1nnc(-c2cccnc2N2CC(F)(F)C2)o1 (centres unmarked) [Example 259] as the compound, how does the EC50 [1] read?
A: > 800 nM

Q: How did the EC50 [1] turn out when Cc1nc(-c2nnc(NC3N=C(c4ccccc4)c4ccccc4NC3=O)o2)ccc1F (centres unmarked) [Example 110] was run?
A: > 800 nM

Q: For O=C1Nc2ccccc2C(c2ccccc2)=NC1Nc1nnc(-c2ccc(-n3cncn3)nc2)o1 (centres unmarked) [Example 225], which EC50 [1] is on record?
A: > 800 nM

Q: For O=C1Nc2ccccc2C(c2ccccc2)=N[C@@H]1Nc1nnc(-c2ccccc2N2CCOCC2)o1 [Example 125a], which EC50 [1] is on record?
A: < 400 nM

Q: With O=C1Nc2ccccc2C(c2ccccc2)=NC1Nc1nnc(-c2cccnc2N2CCC(O)CC2)o1 (centres unmarked) [Example 255] as the compound, how does the EC50 [1] read?
A: > 800 nM

Q: With O=C1Nc2ccccc2C(c2ccccc2)=N[C@@H]1Nc1nnc(-c2nc(C3CC3)ccc2N2CCOCC2)o1 [Example 318] as the compound, how does the EC50 [1] read?
A: < 400 nM

Q: For Cn1cc(-c2nc(-c3nnc(N[C@H]4N=C(c5ccccc5)c5ccccc5NC4=O)o3)c(N3CCOCC3)s2)cn1 [Example 399], which EC50 [1] is on record?
A: < 400 nM

Q: Which EC50 [1] does the source give for O=C1Nc2ccccc2C(c2ccccc2)=NC1Nc1nnc(-c2cnccc2N2CCCCC2)o1 (centres unmarked) [Example 134] here?
A: > 800 nM

Q: C[C@H]1COCCN1c1ncccc1-c1nnc(NC2N=C(c3ccccc3)c3ccccc3NC2=O)o1 (some centres unmarked) [Example 261] was tested. Which EC50 [1] did it give?
A: > 800 nM
